Data taken from ChEMBL document CHEMBL1287680, “C-11 diamino cryptolepine derivatives NSC748392, NSC748393, and NSC748394: anticancer profile and G-quadruplex stabilization” (Bioorg Med Chem Lett, 2010).

Key:
Nucleic Acid = settings: Homo sapiens
Description: Binding affinity to human G-quadruplex DNA assessed as change in melting temperature by FRET-melting assay

OVCAR-8 = assay: cells; settings: Homo sapiens
Description: Anticancer activity against human OVCAR8 cells

OVCAR-5 = assay: cells; settings: Homo sapiens
Description: Anticancer activity against human OVCAR5 cells

OVCAR-4 = assay: cells; settings: Homo sapiens
Description: Anticancer activity against human OVCAR4 cells

OVCAR-3 = assay: cells; settings: Homo sapiens
Description: Anticancer activity against human OVCAR-3 cells

SK-MEL-28 = assay: cells; settings: Homo sapiens
Description: Anticancer activity against human SK-MEL-28 cells

M14 = assay: cells; settings: Homo sapiens
Description: Anticancer activity against human M14 cells

LOX IMVI = assay: cells; settings: Homo sapiens
Description: Anticancer activity against human LOXIMVI cells

SNB-75 = assay: cells; settings: Homo sapiens
Description: Anticancer activity against human SNB75 cells

SF-539 = assay: cells; settings: Homo sapiens
Description: Anticancer activity against human SF539 cells

SF-295 = assay: cells; settings: Homo sapiens
Description: Anticancer activity against human SF295 cells

SF-268 = assay: cells; settings: Homo sapiens
Description: Anticancer activity against human SF268 cells

SW-620 = assay: cells; settings: Homo sapiens
Description: Anticancer activity against human SW620 cells

KM12 = assay: cells; settings: Homo sapiens
Description: Anticancer activity against human KM12 cells

HCC 2998 = assay: cells; settings: Homo sapiens
Description: Anticancer activity against human HCC2998 cells

COLO 205 = assay: cells; settings: Homo sapiens
Description: Anticancer activity against human COLO205 cells

NCI-H322M = assay: cells; settings: Homo sapiens
Description: Anticancer activity against human NCI-H322M cells

NCI-H23 = assay: cells; settings: Homo sapiens
Description: Anticancer activity against human NCI-H23 cells

EKVX = assay: cells; settings: Homo sapiens
Description: Anticancer activity against human EKVX cells

SR = assay: cells; settings: Homo sapiens
Description: Anticancer activity against human SR cells

MOLT-4 = assay: cells; settings: Homo sapiens
Description: Anticancer activity against human MOLT4 cells

Vero = assay: cells; settings: Chlorocebus sabaeus, 48 h
Description: Cytotoxicity against african green monkey Vero cells after 48 hrs by MTT assay

BT-549 = assay: cells; settings: Homo sapiens
Description: Anticancer activity against human BT549 cells

T47D = assay: cells; settings: Homo sapiens
Description: Anticancer activity against human T47D cells

MDA-MB-468 = assay: cells; settings: Homo sapiens
Description: Anticancer activity against human MDA-MB-468 cells

NCI/ADR-RES = assay: cells; settings: Homo sapiens
Description: Anticancer activity against human NCI/ADR-RES cells

MCF7 = assay: cells; settings: Homo sapiens
Description: Anticancer activity against human MCF7 cells

DU-145 = assay: cells; settings: Homo sapiens
Description: Anticancer activity against human DU145 cells

PC-3 = assay: cells; settings: Homo sapiens
Description: Anticancer activity against human PC3 cells

UO-31 = assay: cells; settings: Homo sapiens
Description: Anticancer activity against human UO31 cells

SN12C = assay: cells; settings: Homo sapiens
Description: Anticancer activity against human SN12C cells

RXF 393 = assay: cells; settings: Homo sapiens
Description: Anticancer activity against human RXF393 cells

786-0 = assay: cells; settings: Homo sapiens
Description: Anticancer activity against human 786-0 cells

in vivo = settings: mouse, cancer cell lines
Description: Toxicity in cancer cells containing hollow fiber implanted mouse

C[n+]1c2ccccc2c(NC2CCNCC2)c2[nH]c3ccccc3c21.[Cl-]
ΔTm (Nucleic Acid): 19.9 °C
GI50 (OVCAR-8; OVCAR-8, read-out: pGI50 (converted)): 1.74 µM
CC50 (OVCAR-8; OVCAR-8, read-out: pLC50 (converted)): 45.7 µM
TGI (OVCAR-8; OVCAR-8, read-out: pTGI): 12.3 µM
GI50 (OVCAR-5; OVCAR-5, read-out: pGI50 (converted)): 1.66 µM
CC50 (OVCAR-5; OVCAR-5, read-out: pLC50 (converted)): > 100 µM
TGI (OVCAR-5; OVCAR-5, read-out: pTGI): 17 µM
GI50 (OVCAR-4; OVCAR-4, read-out: pGI50 (converted)): 0.316 µM
CC50 (OVCAR-4; OVCAR-4, read-out: pLC50 (converted)): 36.3 µM
TGI (OVCAR-4; OVCAR-4, read-out: pTGI): 3.8 µM
GI50 (OVCAR-3; OVCAR-3, read-out: pGI50 (converted)): 1.45 µM
CC50 (OVCAR-3; OVCAR-3, read-out: pLC50 (converted)): 95.5 µM
TGI (OVCAR-3; OVCAR-3, read-out: pTGI): 9.55 µM
GI50 (SK-MEL-28; SK-MEL-28, read-out: pGI50 (converted)): 1.05 µM
CC50 (SK-MEL-28; SK-MEL-28, read-out: pLC50 (converted)): 10.5 µM
TGI (SK-MEL-28; SK-MEL-28, read-out: pTGI): 3.24 µM
GI50 (M14; M14, read-out: pGI50 (converted)): 3.16 µM
CC50 (M14; M14, read-out: pLC50 (converted)): 43.7 µM
TGI (M14; M14, read-out: pTGI): 15.1 µM
GI50 (LOX IMVI; read-out: pGI50 (converted)): 1.7 µM
CC50 (LOX IMVI; read-out: pLC50 (converted)): 49 µM
TGI (LOX IMVI; read-out: pTGI): 5.25 µM
GI50 (SNB-75; SNB-75, read-out: pGI50 (converted)): 1.38 µM
CC50 (SNB-75; SNB-75, read-out: pLC50 (converted)): 24.5 µM
TGI (SNB-75; SNB-75, read-out: pTGI): 5.37 µM
GI50 (SF-539; SF-539, read-out: pGI50 (converted)): 1.66 µM
CC50 (SF-539; SF-539, read-out: pLC50 (converted)): 28.8 µM
TGI (SF-539; SF-539, read-out: pTGI): 7.41 µM
GI50 (SF-295; SF-295, read-out: pGI50 (converted)): 0.741 µM
CC50 (SF-295; SF-295, read-out: pLC50 (converted)): 77.6 µM
TGI (SF-295; SF-295, read-out: pTGI): 10.2 µM
GI50 (SF-268; SF-268, read-out: pGI50 (converted)): 0.0457 µM
CC50 (SF-268; SF-268, read-out: pLC50 (converted)): 42.7 µM
TGI (SF-268; SF-268, read-out: pTGI): 1.38 µM
GI50 (SW-620; SW-620, read-out: pGI50 (converted)): 1.45 µM
CC50 (SW-620; SW-620, read-out: pLC50 (converted)): > 100 µM
TGI (SW-620; SW-620, read-out: pTGI): 10.7 µM
GI50 (KM12; KM12, read-out: pGI50 (converted)): 0.708 µM
CC50 (KM12; KM12, read-out: pLC50 (converted)): > 100 µM
TGI (KM12; KM12, read-out: pTGI): 10 µM
GI50 (HCC 2998; HCC 2998, read-out: pGI50 (converted)): 0.324 µM
CC50 (HCC 2998; HCC 2998, read-out: pLC50 (converted)): 5.25 µM
TGI (HCC 2998; HCC 2998, read-out: pTGI): 1.7 µM
GI50 (COLO 205; COLO 205, read-out: pGI50 (converted)): 0.339 µM
CC50 (COLO 205; COLO 205, read-out: pLC50 (converted)): 14.5 µM
TGI (COLO 205; COLO 205, read-out: pTGI): 2.4 µM
GI50 (NCI-H322M; read-out: pGI50 (converted)): 0.372 µM
CC50 (NCI-H322M; read-out: pLC50 (converted)): > 100 µM
TGI (NCI-H322M; read-out: pTGI): 12 µM
GI50 (NCI-H23; NCI-H23, read-out: pGI50 (converted)): 0.0589 µM
CC50 (NCI-H23; NCI-H23, read-out: pLC50 (converted)): 10.2 µM
TGI (NCI-H23; NCI-H23, read-out: pTGI): 0.646 µM
GI50 (EKVX; read-out: pGI50 (converted)): 0.525 µM
CC50 (EKVX; read-out: pLC50 (converted)): > 100 µM
TGI (EKVX; read-out: pTGI): 8.32 µM
GI50 (SR; read-out: pGI50 (converted)): 1.7 µM
CC50 (SR; read-out: pLC50 (converted)): > 100 µM
TGI (SR; read-out: pTGI): > 100 µM
GI50 (MOLT-4; MOLT-4, read-out: pGI50 (converted)): 0.138 µM
CC50 (MOLT-4; MOLT-4, read-out: pLC50 (converted)): > 100 µM
TGI (MOLT-4; MOLT-4, read-out: pTGI): > 100 µM
IC50 (Vero): 10 µM
GI50 (BT-549; BT-549, read-out: pGI50 (converted)): 2.75 µM
CC50 (BT-549; BT-549, read-out: pLC50 (converted)): 57.5 µM
TGI (BT-549; BT-549, read-out: pTGI): 16.6 µM
GI50 (T47D; read-out: pGI50 (converted)): 0.234 µM
CC50 (T47D; read-out: pLC50 (converted)): > 100 µM
TGI (T47D; read-out: pTGI): 2.34 µM
GI50 (MDA-MB-468; MDA-MB-468, read-out: pGI50 (converted)): 0.234 µM
CC50 (MDA-MB-468; MDA-MB-468, read-out: pLC50 (converted)): 6.92 µM
TGI (MDA-MB-468; MDA-MB-468, read-out: pTGI): 1.58 µM
GI50 (NCI/ADR-RES; read-out: pGI50 (converted)): > 100 µM
CC50 (NCI/ADR-RES; read-out: pLC50 (converted)): > 100 µM
TGI (NCI/ADR-RES; read-out: pTGI): > 100 µM
GI50 (MCF7; MCF7, read-out: pGI50 (converted)): 0.224 µM
CC50 (MCF7; MCF7, read-out: pLC50 (converted)): > 100 µM
TGI (MCF7; MCF7, read-out: pTGI): 2.14 µM
GI50 (DU-145; DU-145, read-out: pGI50 (converted)): 0.204 µM
CC50 (DU-145; DU-145, read-out: pLC50 (converted)): > 100 µM
TGI (DU-145; DU-145, read-out: pTGI): 10.2 µM
GI50 (PC-3; PC-3, read-out: pGI50 (converted)): 1.95 µM
CC50 (PC-3; PC-3, read-out: pLC50 (converted)): 97.7 µM
TGI (PC-3; PC-3, read-out: pTGI): 10.5 µM
GI50 (UO-31; UO-31, read-out: pGI50 (converted)): 13.2 µM
CC50 (UO-31; UO-31, read-out: pLC50 (converted)): > 100 µM
TGI (UO-31; UO-31, read-out: pTGI): 46.8 µM
GI50 (SN12C; read-out: pGI50 (converted)): 0.0295 µM
CC50 (SN12C; read-out: pLC50 (converted)): > 100 µM
TGI (SN12C; read-out: pTGI): 0.316 µM
GI50 (RXF 393; RXF 393, read-out: pGI50 (converted)): 1.62 µM
CC50 (RXF 393; RXF 393, read-out: pLC50 (converted)): 26.3 µM
TGI (RXF 393; RXF 393, read-out: pTGI): 4.9 µM
GI50 (786-0; 786-0, read-out: pGI50 (converted)): 3.47 µM
CC50 (786-0; 786-0, read-out: pLC50 (converted)): > 100 µM
TGI (786-0; 786-0, read-out: pTGI): 18.2 µM
MTD (in vivo): 25 mg/kg
